Data from article PMC5834442, “Identifying inhibitors of the Leishmania inositol phosphorylceramide synthase with antiprotozoal activity using a yeast-based assay and ultra-high throughput screening platform” (Scientific Reports, 2018).

Tested on: L. donovani (MHOM/SD/62/1S-CL2D, LdBOB) axenic amastigotes
Experiment: Leishmania donovani axenic amastigote dose response assay (resazurin)
Assay type: cell-based
Conditions: -logIC50 mol against L. donovani (LdBOB) axenic amastigotes, read-out: pIC50 Axenic (converted)

Row | Compound | IC50 [µM]
1 | NC(=O)c1cc(-c2csc(-c3ccsc3)n2)ccc1O [ST/1241904] | 20.9
2 | Cc1cc(C)n2nc(S(=O)(=O)Nc3c(Cl)cccc3Cl)nc2n1 [ST/833860] | 41.7
3 | CNS(=O)(=O)c1ccc(NC(=O)c2csc(C)c2-c2ccccc2)cc1 [ST/937316] | 38.9
4 | Cc1cc(-c2nc3cc(Cl)ccc3o2)ccc1N [ST/880430] | 26.9
5 | O=c1nc(SCc2ccccc2Cl)c2c([nH]1)CCCC2 [ST/1287093] | > 50
6 | Cc1cc(C(=O)N(C2=NC(C)CS2)c2ccc(Cl)cc2)no1 (stereo not drawn) [ST/807832] | > 50
7 | O=C(Nc1oc2ccc(Cl)cc2c(=O)c1-c1ccc(Br)cc1)c1ccco1 [ST/802162] | 25.1
8 | COc1ccc2cc(C(=O)Nc3ccc(F)c(Cl)c3)[nH]c2c1 [ST/803999] | 11.2
9 | COc1ccc(Cl)cc1NC(=O)Nc1cccc(F)c1 [SC/109667] | 11.5
10 | O=C(Nc1ccccc1C(=O)NCc1ccc(Cl)cc1)c1ccco1 [ST/771851] | > 50
11 | CC1CSC(N(C(=O)Cc2cccs2)c2ccc(Cl)cc2)=N1 (stereo not drawn) [ST/815117] | 33.9
12 | O=C(NCc1ccccc1)c1sccc1NS(=O)(=O)c1ccccc1 [RF44798-098A22] | 21.4
13 | O=C(NC1=NN(c2ccc(Cl)c(Cl)c2)CC1)c1ncccn1 [N7030-10-104] | > 50
14 | Cc1cccn2c(=O)c(C(=O)NCc3ccncc3)c(O)nc12 [ST/1129403] | > 50
15 | COCC(C)NC(=O)c1c(O)nc2c(C)cccn2c1=O (stereo not drawn) [ST/1131522] | > 50
16 | O=C1CCc2cc(-c3csc(-c4cccnc4)n3)ccc2N1 [R9196/29/59] | > 50
17 | N=c1nc2n(c(=N)[nH]1)NC(c1ccc(Cl)cc1)=CS2 [ST/1850161] | 47.9
18 | O=C(NC1CCN(S(=O)(=O)c2ccc(O[C@@H]3CCNC3)cc2)CC1)c1ccc(Cl)c(Cl)c1 [AS45234-005A4B2C1D4] | > 50
19 | c1ccc2oc(-c3ccnc4nncn34)cc2c1 [ST/1803771] | > 50
20 | O[C@@]1(c2ccc(F)cc2)CCCC[C@@H]1n1cncn1 [ST/2183803] | > 50

Row | Compound | IC50 [µM]
21 | O=c1cc(-c2ccccc2O)oc2ccccc12 [SC/32543] | > 50
22 | CCOc1ccc(C(C)C)cc1S(=O)(=O)n1ccnc1 [ST/1289929] | 10.5
23 | CC(C(O)(Cn1cncn1)c1ccc(F)cc1F)S(C)(=O)=O (stereo not drawn) [JCH/31/2] | > 50
24 | O=C1CC(c2ccccc2)N(c2ccc(Cl)cc2)N1 (stereo not drawn) [0014C 75***] | 26.9
25 | CCc1cccc(NC(=O)Nc2cc(F)ccc2F)c1 [SC/109224] | 15.1
26 | O=C(Nc1cccc(Cl)c1)Nc1ccc2snnc2c1 [ST/736217] | 13.5
27 | CCN(C(=O)Cc1c(C(=O)O)[nH]c2ccccc12)c1cc(C)ccc1C [ST/728445] | 18.2
28 | CN1CCN(CC(=O)Nc2ccc(C(F)(F)F)cc2)CC1c1ccccc1 (stereo not drawn) [ST/961463] | > 50
29 | OC(Cn1cncn1)(c1ccc(F)cc1F)C1CCCS1 (stereo not drawn) [JJP/1818/3] | > 50
30 | COc1ccc(Br)cc1C(=O)Nc1cc(Cl)ccc1O [ST/1108634] | 16.6
31 | Cc1ccc(C2=NN(S(=O)(=O)c3cc(Cl)sc3Cl)C(C)C2)cc1 (stereo not drawn) [U20197/52/63] | 32.4
32 | N#Cc1ccc(Cn2cc(C(=O)c3cccs3)c3ccccc32)cc1 [ST/516872] | 14.8
33 | O=S(=O)(Nc1cccc(F)c1CNCc1ccco1)c1ccccc1Cl [DS105792-055A7B42] | 32.4
34 | Cc1cc(Cl)ccc1NC(=O)CN(c1ccccc1C(=O)O)S(=O)(=O)c1cccs1 [N9272-3-4] | > 50
35 | O=S(=O)(c1ccccc1)N1CCN(c2nccc(-c3cccs3)n2)CC1 [ST/1415180] | 39.8
36 | Cn1c(=O)c(Oc2ccc(Cl)cc2)c(O)c2ccccc21 [ST/832324] | > 50
37 | COc1cc2c(cc1S(=O)(=O)c1ccc(COc3cccc(F)c3)cc1)CCN(C)CC2 [DC101675-085A1] | > 50
38 | O=C(c1ccc(Cl)cc1)N1CCCn2c1nc1ccccc1c2=O [ST/1938375] | > 50
39 | Cc1oc(-c2ccc(Cl)cc2)cc1C(=O)NCC(=O)c1cccs1 [ST/1260077] | 34.7
